Experimental data: US20210052882A1, “ENHANCED TREATMENT VOLUME AND SELECTIVE ABLATION USING ELECTROPORATION WITH ADJUVANT CALCIUM” (Virginia Tech Intellectual Properties, Inc., priority 2019, published 2021)
Several values for one entry are separate records, joined by “and”; a condition that tells them apart may be missing. Identical values can stand only once.

Legend:
[1] = tested on: U251 malignant glioma cells; experiment: Electric field threshold for cell death, ablation area mapped to finite element model
Description: For analysis, images were separated into two channels (green—Calcein AM, red—PI) and ablation areas for the green channel were analyzed for irreversible thresholds and red channels for reversible electroporation thresholds using a custom algorithm written in MATLAB. In cases where the algorithm was unable to accurately measure ablations, coordinate points from the algorithm outlining the ablation area were used as a guide to manually trace and measure the area in ImageJ. Ablation area measurements were mapped to a finite element model of the experimental setup to determine the corresponding electric field threshold.
Treatments were simulated using the finite element method (COMSOL Multiphysics, Burlington, Mass.) and the electric field and temperature distributions were determined. The mesh was refined until there was <1% change in the electric field and temperature values along a cutline between the electrodes. The mesh consisted of 102,615 total elements. […] From the finite element model of the collagen scaffold, a relationship between lesion area and electric field magnitude is determined by performing numerical integration on the surface of the scaffold for a range of electric field magnitudes (100-3000 V/cm). A curve was constructed and fit to the data using least squares fitting in MATLAB. […] This equation was used to accurately back out the electric field thresholds for each treatment condition without needing to manually determine them using COMSOL.
From the finite element model, it is possible to determine the electric field threshold required for cell death.
Using the finite element model of H-FIRE treatment in the scaffold, the corresponding electric field thresholds for each ablation area were characterized.

cells [2] = conditions: cited from earlier work
[3] = 450 V, 1 Hz, 100 μs; 80 pulses for IRE, 8 pulses for ECT; cited from earlier work
cells [4] = conditions: nsPEFs; cited from earlier work
[5] = tested on: U251 malignant glioma cells; experiment: H-FIRE ablation (lesion) area in collagen scaffolds, live/dead stain 24 hr after treatment; type: cell-based; conditions: for increase of ablation area compared to NaCl control: 1 mM; for increase of ablation area compared to NaCl control / increase in ablation area compared to NaCl control: H-FIRE 800 V, 80 bursts
Description: U251 malignant glioma cells (Sigma Aldrich, 09063001) were maintained at 5% CO2 and 37° C. in Eagle's Minimum Essential Medium (Sigma Aldrich) supplemented with 1% penicillin/streptomycin (Life Technologies), 10% fetal bovine serum (Atlanta Biologicals), 1% non-essential amino acids (Sigma Aldrich) and 1 mM sodium pyruvate (Sigma Aldrich). Cells were routinely passaged at 80-90% confluence. […] PDMS wells were treated with 1% PEI (Acros Organics) for 10 min, 0.1% glutaraldehyde (Fisher Scientific) for 20 min, and then washed twice with deionized water prior to collagen seeding to ensure collagen adhesion during treatment. Commercial rat tail collagen type I (BD Biosciences) was neutralized using a solution of 10× Dulbecco's Modified Eagle Medium (10% total volume, Sigma Aldrich), 1 N NaOH (2% collagen volume, Sigma Aldrich), and 1× Dulbecco's Modified Eagle Medium (Sigma Aldrich) to a final concentration of 5 mg/mL. […] The collagen/cell solution was dispensed into PDMS wells and PDMS tops were used to mold the collagen flat while they polymerized in a cell culture incubator for 20 min. PDMS tops were then removed and cell culture media was added. Collagen scaffolds were maintained in the incubator for 24 hr prior to treatment. […] All solutions consisted of the same base ingredients: 250 mM sucrose, 1 mM MgCl2, and 10 mM HEPES buffer in deionized water with a pH in the range of 7.2-7.4. […] Cell culture media contains things such as serum and antibiotics that may affect results. Finally, fresh solutions were added immediately prior to pulsing. All solutions were adjusted to have a pH between 7.2-7.4. The osmolarity and conductivity of the buffers used are shown in Table 1: In this example, two hollow, stainless-steel needle electrodes (Howard electronics) were inserted into the scaffolds using a custom designed electrode housing. […] H-FIRE pulses were delivered using a high-voltage pulse generator (EPULSUS®-FBM1-5, EnergyPulse Systems, Lda). Voltage waveforms were captured using a high voltage probe and oscilloscope (DPO 2012, Tektronix). […] The pulses delivered were bipolar pulses having a positive pulse duration, inter-pulse delay, and negative pulse duration (see, e.g., FIG. 1B). Inter-pulse delay was kept constant (1 μs) while pulse width was varied (1, 2, 5, 10 μs). […] For reversible threshold experiments, scaffolds were imaged immediately after treatment. To visualize ablations, a live/dead stain was performed to visualize live and dead regions of cells in the scaffold. […] Scaffolds were then washed 2× with PBS prior to imaging using an inverted microscope (DMI 6000B, Leica Microsystems) with a 5× objective. Lesion areas were quantified for each treatment using a MATLAB algorithm. Since 24 h post treatment is sufficient to allow any reversibly electroporated cells to recover (as pore resealing happens on the order of minutes), staining the cells immediately after treatment and 24 h later allows for quantification of both the reversible zone of electroporation and irreversible zones of ablation. […] Scaffolds were then washed twice with PBS prior to imaging using an inverted microscope (DMI 6000B, Leica Microsystems) with a 5× objective, filter cubes, and an EM-CCD camera (Hamamatsu C9100). The appropriate filters were used to image Calcein AM (Ex:460-500, DC: 505, EM: 570-640) and propidium iodide (EX:545/26, DC:565, EM:605/70). […] Scaffolds were then imaged immediately after treatment. […] Reversible electroporation experiments were repeated at least six times. Discrepancies in the number of replicates between conditions were due to bubbles or other defects that may have changed the electric field distribution or prohibited a reliable measurement of ablation area. These scaffolds were excluded from analysis. Two-way ANOVA was used to test for differences in cell death area due to the different applied solutions and pulse waveforms. Tukey post-hoc comparisons were used to examine differences among treatment groups. […]

[6] = Properties of solutions (conductivity, osmolarity); type: physicochemical; conditions: base 250 mM sucrose, 1 mM MgCl2, 10 mM HEPES, pH 7.2-7.4
Description: All solutions consisted of the same base ingredients: 250 mM sucrose, 1 mM MgCl2, and 10 mM HEPES buffer in deionized water with a pH in the range of 7.2-7.4. […] Cell culture media contains things such as serum and antibiotics that may affect results. Finally, fresh solutions were added immediately prior to pulsing. All solutions were adjusted to have a pH between 7.2-7.4.

## [Ca+2].[Cl-].[Cl-] [CaCl2, calcium chloride]
[1]; 1 mM, 1-1-1 waveform
  reduction of electric field threshold compared to NaCl control: 1.24 ×
[1]; 1 mM, 2-1-2 waveform
  reduction of electric field threshold compared to NaCl control: 1.48 ×
[1]; 1 mM, 2-2-2 waveform
  reduction of electric field threshold compared to NaCl control: 1.5 ×
[1]; 1 mM, 5-1-5 waveform
  reduction of electric field threshold compared to NaCl control: 2.05 ×
[1]; 1 mM, 5-5-5 waveform
  reduction of electric field threshold compared to NaCl control: 2.1 ×
[1]; 1 mM, 10-1-10 waveform
  reduction of electric field threshold compared to NaCl control: 2.2 × and 2.19 ×
[1]; 1-1-1 waveform
  reduction of electric field threshold, 5 mM NaCl to 5 mM CaCl2: 1.46 ×
[1]; 2-1-2 waveform
  reduction of electric field threshold, 5 mM NaCl to 5 mM CaCl2: 1.77 × and 1.91 ×
[1]; 5-1-5 waveform
  reduction of electric field threshold, 5 mM NaCl to 5 mM CaCl2: 2.49 × and 2.43 ×
[1]; 10-1-10 waveform
  reduction of electric field threshold, 5 mM NaCl to 5 mM CaCl2: 1.92 × and 1.83 ×
[1]; H-FIRE 10-1-10 waveform with calcium, concentration not given
  electric field threshold: 784±107 V/cm
[1]; H-FIRE 10-1-10 waveform, 1 mM
  electric field threshold: 771±129 V/cm
[1]; IRE treatment
  electric field threshold: 467±67 V/cm
Cells [2]
  cell death, ECT pulses with calcium versus electroporation alone: more cell death
  cellular ATP, ECT pulses with calcium versus electroporation alone: greater decrease
[3]
  lesion area for IRE or ECT treatment when CaCl2 is added: greatly increased
Cells [4]
  cell swelling and mode of cell death: experienced necrosis
[5]; 1-1-1 waveform
  increase of ablation area compared to NaCl control: ~2.3 ×
[5]; 2-1-2 waveform
  increase of ablation area compared to NaCl control: 4.4 ×
[5]; 5-1-5 waveform
  increase of ablation area compared to NaCl control: 6.1 ×
[5]; 10-1-10 waveform
  increase of ablation area compared to NaCl control: 3.42 ×
[5]; 5 mM, 1-1-1 waveform
  increase in ablation area compared to NaCl control: 3.4 ×
[5]; 5 mM, 2-1-2 waveform
  increase in ablation area compared to NaCl control: 4.37 ×
[5]; 5 mM, 5-1-5 waveform
  increase in ablation area compared to NaCl control: 5.24 ×
[5]; 5 mM, 10-1-10 waveform
  increase in ablation area compared to NaCl control: 2.66 ×
[5]; 5 mM, same applied energy, 2, 5 and 10 μs pulse widths
  lesion size compared with an IRE treatment without calcium: comparable in size or larger
[5]; H-FIRE, all pulse patterns
  ablation (lesion) sizes, calcium groups versus NaCl groups: statistically significantly larger
[5]; after 24 h, shorter pulse durations
  5 mM CaCl2 areas versus 1 mM CaCl2 areas: larger
[6]; 1 mM solution
  Conductivity: 0.075 ± 0.004 S/m
  Osmolarity: 289 mOsm/L
[6]; 5 mM solution
  Conductivity: 0.131 S/m
  Osmolarity: 300 mOsm/L
